Earlier results, collected in US9066965B1, “Purified limonin glucoside for prevention and treatment of chronic diseases” (The United States of America, as represented by the …, priority 2012, dated 2015).

Legend:
[1] = purified flavonoids, hypercholesterolemic men and women; cited from earlier work
TGRS = biological target: T1, TGRS (Homo sapiens, UniProt Q8TDU6); details: cited from earlier work
T1 sequence (Q8TDU6 1-330): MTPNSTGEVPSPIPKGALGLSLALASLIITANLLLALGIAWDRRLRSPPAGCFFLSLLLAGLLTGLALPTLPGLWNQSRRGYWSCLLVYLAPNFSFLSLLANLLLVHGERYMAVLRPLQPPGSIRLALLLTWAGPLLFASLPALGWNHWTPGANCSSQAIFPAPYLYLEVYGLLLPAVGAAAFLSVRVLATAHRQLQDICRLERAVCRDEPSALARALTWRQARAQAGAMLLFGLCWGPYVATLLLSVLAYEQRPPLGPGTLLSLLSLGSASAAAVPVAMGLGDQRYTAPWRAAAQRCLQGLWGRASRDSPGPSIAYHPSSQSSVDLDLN

[2] = 0.2% in diet, mice fed high fat diets; cited from earlier work
Hep G2 cell line = details: cited from earlier work

| SMILES | effect on serum total- and LDL cholesterol [1] | activation of TGRS (TGRS) | high fat diet induced obesity and hyperglycemia [2] | Apo B secretion (Hep G2 cell line) |
| --- | --- | --- | --- | --- |
| COc1ccc([C@@H]2CC(=O)c3c(O)cc(O[C@@H]4O[C@H](CO[C@@H]5O[C@@H](C)[C@H](O)[C@@H](O)[C@H]5O)[C@@H](O)[C@H](O)[C@H]4O)cc3O2)cc1O [hesperidin] | did not alter |  |  |  |
| CC(=O)O[C@H]1CC(=O)OC(C)(C)[C@@H]2CC(=O)[C@]3(C)[C@H](CC[C@@]4(C)[C@H](c5ccoc5)OC(=O)[C@H]5O[C@]543)[C@@]12C [nomilin] |  | activating | prevented |  |
| CC1(C)O[C@H]2CC(=O)OC[C@]23[C@H]2CC[C@@]4(C)[C@H](c5ccoc5)OC(=O)[C@H]5O[C@]54[C@]2(C)C(=O)C[C@@H]13 [limonin] |  | did not activate |  | significantly decreased |
| C[C@@H]1O[C@@H](O[C@H]2[C@H](Oc3cc(O)c4c(c3)O[C@H](c3ccc(O)cc3)CC4=O)O[C@H](CO)[C@@H](O)[C@@H]2O)[C@H](O)[C@H](O)[C@H]1O [naringin] | did not alter |  |  |  |
